Measurements published in patent publication US20260109731A1, “NE[…] USE THEREOF” (HUNAN MINGRUI PHARMACEUTICAL CO., LTD., priority 2023, published 2026).

Tests used:
[1] = Pharmacokinetic analysis of oral gavage administration in female rats; conditions: for bioavailability: oral
Procedure: • Female SD rats (body weight: 200 g to 220 g) were purchased from BEIJING HFK BIOSCIENCE CO., LTD.
60 female SD rats were divided into two groups (Aoral and Boral), with 30 rats per group (5 rats per blood collection time point). The drugs Aoral and Boral were administered via oral gavage administration at 12 mg/kg each (about 1.6 mL of drug solution). Blood was collected from the orbital venous plexus at each time point (5 min, 30 min, 1 h, 2 h, 4 h, and 8 h) after administration, respectively, anticoagulated with heparin, and centrifuged, and then the plasma was separated and stored at −80° C. for later testing. At 8 h after blood collection, the animals were sacrificed, and the brain and Liver tissues were taken and stored at −80° C. for later testing.
100 μL of plasma sample, 10 μL of internal standard solution (100 ng/mL testosterone D-3 solution), and 310 μL of acetonitrile were accurately measured, uniformly mixed by vortexing, and centrifuged (14000 rpm, 4° C.), and a resulting supernatant was taken and detected using UPLC-MS/MS (the analysis method was the same as that in pharmacokinetic analysis in mice).
(§1) About 100 mg of brain or liver tissue sample was taken, and accurately weighed. 100 μL of water and 400 μL acetonitrile were accurately added thereto, and a resulting mixture was subjected to homogenization. 100 μL of brain or liver tissue homogenate, 10 μL of internal standard solution (100 ng/mL testosterone D-3 solution), and 310 μL of acetonitrile were accurately measured, uniformly mixed by vortexing, and centrifuged (14000 rpm, 4° C.), and a resulting supernatant was taken and detected using UPLC-MS/MS (the analysis method was the same as that in pharmacokinetic analysis in mice).

[2] = In vitro phase I metabolic stability in male SD rat hepatic microsomes; format: in vitro ADME; conditions: male SD rat hepatic microsomes; for half-life / microsomal CLint: liver microsomes; for half-life: NADPH system, read-out: T1/2 (in vitro metabolic half-life); for half-life / In vitro CLint / k (slope of ln remaining percentage against incubation time): 37° C.; for microsomal CLint: read-out: intrinsic clearance
Procedure: Phase I metabolic stability kit (purchased from HUIZHI HEYUAN BIOTECHNOLOGY (BEIJING) CO., LTD), with the following components of the product:
Positive substrate testosterone solution (10 mM): diluted with acetonitrile to prepare a 200 μM solution for later use; stop solution & internal standard (testosterone-D3): dissolved with acetonitrile to prepare a 5 ng/mL solution for later use.
• 1) all components of the kit were thawed in an ice bath and placed on ice for later use; • 2) an incubation system (taking 200 μL system as an example) was prepared:
• 3) 160 μL of pre-incubation solution B was added into the centrifuge tube containing 40 μL of pre-incubation solution A, uniform mixing was performed by pipetting three times, and the resulting mixture was immediately placed in a water bath at 37° C. for incubation and timing was started; • 4) at predetermined incubation time points (0, 5, 10, 15, 30, 45, 60 minutes), the incubation solution was quantitatively taken out, and 200 μL of stop solution (5 ng/mL testosterone-D3 in acetonitrile, pre-chilled at 4° C.) was added to terminate the reaction (stop solution volume: incubation system volume=1:1). Experimental samples were prepared in triplicate at each time point.
To verify the validity of the experiment, a positive control group was established concurrently in the whole experiment to evaluate whether the incubation system functioned properly, with the preparation method as follows: the compound to be tested was replaced with the positive substrate testosterone (200 μM in acetonitrile) from the phase I metabolic stability kit, and the other components of the incubation system and experimental method were the same as those of the experimental group.
The ratio of the chromatographic peak area of the compound to be tested to the chromatographic peak area of the testosterone-D3 (internal standard) was used as the calculated data. By taking the peak area ratio at time zero of the test compound as 100%, the remaining percentages were calculated by comparing the peak area ratio at each time point with the peak area ratio at time zero, and the natural logarithms of the remaining percentages of the substrate at each time point are then subjected to linear regression against the incubation times to obtain the slope k. Therefore, the in vitro metabolic half-life (T1/2) and intrinsic clearance (CLint) were calculated using the following formulas: […]

[3] = Pharmacokinetic analysis of tail vein administration in mice; conditions: female, ICR, mouse, 5 mg/kg; for concentration at 5 min / concentration at 1 h / concentration at 8 h: brain; for clearance / half-life: plasma, iv
Procedure: Female ICR mice (body weight: 20 g to 22 g) were purchased from BEIJING HFK BIOSCIENCE CO., LTD.
The animals were sacrificed at blood collection time points (5 min, 1 h and 8 h) for brain tissue collection, and the collected brain tissues were stored at −80° C. for later testing.
100 μL of plasma sample, 10 μL of internal standard solution (100 ng/mL testosterone D-3 solution), and 310 μL of acetonitrile were accurately measured, uniformly mixed by vortexing, and centrifuged (14000 rpm, 4° C.), and a resulting supernatant was taken to obtain the plasma sample.
as §1, with “brain” for “brain or liver”, “weighed,” for “weighed.”, “to obtain” for “and detected using UPLC-MS/MS (the analysis method was”, “brain tissue sample.” for “same as that in pharmacokinetic analysis in mice).”
100 μL of blank plasma sample, 10 μL of mixed standard solution, 10 μL of internal standard solution (100 ng/mL testosterone D-3 solution), and 300 μL of acetonitrile were accurately measured, uniformly mixed by vortexing, and centrifuged (14000 rpm, 4° C.), and a resulting supernatant was taken to obtain the plasma matrix standard solution.
About 100 mg of blank brain tissue sample was taken, and accurately weighed, 100 μL of water and 400 μL acetonitrile were accurately added thereto, and a resulting mixture was subjected to homogenization using a homogenizer. 100 μL of brain tissue homogenate, 10 μL of mixed standard solution, 10 μL of internal standard solution (100 ng/mL testosterone D-3 solution) and 300 μL of acetonitrile were accurately measured, uniformly mixed by vortexing, and centrifuged (14000 rpm, 4° C.), and a resulting supernatant was taken to obtain the Brain tissue matrix standard solution.
The UPLC-MS/MS method with testosterone D-3 as the internal standard was used to perform analysis and determination by the standard curve method.

[4] = female, SD, rat, plasma, 12 mg/kg

## CC(=O)[C@H]1CC[C@H]2[C@@H]3CC[C@H]4C[C@H](O)CC[C@]4(C)[C@H]3CC[C@]12C [Allopregnanolone, 5α-pregnan-3α-ol-20-one, reference compound]
[1]; female SD rats, oral administration, 12 mg/kg, 8 h after administration
  level of the administered compound in the liver tissue (for compound 1 the sentence prints: in the plasma): undetectable
[1]; female SD rats, oral gavage, 12 mg/kg
  level in plasma and brain tissue at all time points: undetectable
[1]; [4]
  bioavailability: 0%
[2]
  half-life: 2.17 min
  microsomal CLint: 639 µL/min/mg
  In vitro CLint: 639.28 μL/min/mg protein
  k (slope of ln remaining percentage against incubation time): −0.3196
[3]; intravenous
  concentration at 5 min: 1070 ng/g
  concentration at 1 h: 47.3 ng/g
  concentration at 8 h: 14.4 ng/g
[3]; brain/plasma, intravenous
  Kp at 5 min: 1.28
  Kp at 1 h: 2.71
[3]
  clearance: 218 mL/min/kg
  half-life: 40.8 min

## CC(=O)[C@H]1CC[C@H]2[C@@H]3CC[C@H]4C[C@H](O[N+](=O)[O-])CC[C@]4(C)[C@H]3CC[C@]12C [Compound 1]
[1]; female SD rats, oral gavage 12 mg/kg vs tail vein 3 mg/kg
  Oral bioavailability: >65%
[1]; female SD rats, oral gavage, 12 mg/kg, sesame oil solution
  clearance: 9.67 mL/min/kg
[1]; female, SD, rat, brain, po, 12 mg/kg
  concentration at 8 h: 1640 ng/g
[1]; female, SD, rat, brain/plasma, po, 12 mg/kg
  Kp at 8 h: 2.95
[1]; female, SD, rat, liver, po, 12 mg/kg
  concentration at 8 h: 3700 ng/g
[1]; [4]
  bioavailability: > 65%
[1]; female, SD, rat, plasma, po, 12 mg/kg
  Tmax: > 480 min
[2]
  half-life: 93.5 min
  microsomal CLint: 14.8 µL/min/mg
  In vitro CLint: 14.82 μL/min/mg protein
  k (slope of ln remaining percentage against incubation time): −0.0074
[3]; intravenous
  concentration at 5 min: 1140 ng/g
  concentration at 1 h: 652 ng/g
  concentration at 8 h: 31 ng/g
[3]; brain/plasma, intravenous
  Kp at 5 min: 0.65
  Kp at 1 h: 7.58
  Kp at 8 h: 2.27
[3]
  clearance: 197 mL/min/kg
  half-life: 50.4 min
